Measured values from ChEMBL document CHEMBL1150244, “Periglaucines A-D, anti-HBV and -HIV-1 alkaloids from Pericampylus glaucus” (J Nat Prod, 2008).

Assays:
[1] = Selectivity index, ratio of CC50 for human C8166 cells to EC50 for HIV1; format: toxicity, cell-based; settings: read-out: Ratio CC50/EC50
[2] = Cytotoxicity against human C8166 cells after 72 hrs by MTT assay; format: cell-based
Hepatitis B virus [3] = experiment: Antiviral activity against HBV assessed as inhibition of viral e-antigen secretion in HepG2.2.15 cells by ELISA; format: functional, organism-based; settings: HepG2 2.2.15
[4] = Cytotoxicity against human HepG2.2.15 cells by MTT assay; format: cell-based, HepG2 2.2.15
[5] = Selectivity index, ratio of CC50 for human HepG2.2.15 cells to IC50 for HBV e-antigen secretion; format: functional
[6] = Selectivity index, ratio of CC50 for human HepG2.2.15 cells to IC50 for HBV surface antigen secretion; format: functional
[7] = test system: Human immunodeficiency virus 1; experiment: Antiviral activity against HIV1 in human C8166 cells assessed as protection against viral-induced cytopathic effect by syncytium reduction assay; format: functional, organism-based; settings: Human immunodeficiency virus 1, C8166
Hepatitis B virus [8] = experiment: Antiviral activity against HBV assessed as inhibition of viral surface antigen secretion in HepG2.2.15 cells by ELISA; format: functional, organism-based; settings: HepG2 2.2.15

SMILES | IC50 (Hepatitis B virus [3]) [µM] | EC50 [7] [µM] | IC50 (Hepatitis B virus [8]) [µM] | selectivity ratio [1] | CC50 at 72 h [2] [µM] | CC50 [4] [µM] | Ratio CC50/IC50 [5] | Ratio CC50/IC50 [6]
COc1ccc2c(c1OC)C(=O)N1CCc3cc4c(cc3[C@@H]1C2)OCO4 | > 3400 | – | > 3400 | – | – | > 3400 | – | –
CO[C@@H]1C(=O)C[C@]23CCN(C)[C@@]24C[C@@H](O[C@]14OC)c1cc2c(cc13)OCO2 [PERIGLAUCINE A] | 3410 | 204 | 1040 | 4.03 | > 536 | 2960 | <1 | 2.85
CO[C@H]1C(=O)C[C@]23CCN(C)[C@@]24C[C@@H](O[C@]14OC)c1cc2c(cc13)OCO2 [PERIGLAUCINE B] | 3090 | 389 | 470 | 1.61 | > 536 | 640 | <1 | 1.36
CO[C@@H]1C(=O)C[C@]23CC(=O)N(C)[C@@]24C[C@@H](O[C@]14OC)c1cc2c(cc13)OCO2 [PERIGLAUCINE C] | > 3690 | 162 | 1720 | 3.29 | > 516 | 2360 | <1 | 1.37

The next lines start with results.

IC50 (Hepatitis B virus [3]) [µM] | EC50 [7] [µM] | IC50 (Hepatitis B virus [8]) [µM] | SMILES | selectivity ratio [1] | CC50 at 72 h [2] [µM] | CC50 [4] [µM] | Ratio CC50/IC50 [5] | Ratio CC50/IC50 [6]
> 7470 | 14.1 | 140 | COc1cc2c(cc1OC)[C@@H]1Cc3ccc(OC)c(OC)c3C(=O)N1CC2 | 18.8 | 307 | 3000 | <1 | 22.4
> 3880 | 10.9 | 930 | COc1c(OC)c2c3c(nccc3c1OC)-c1cc(O)ccc1-2 [IMERUBRINE] | 45.7 | 493 | > 3880 | – | >4.17
3010 | 334 | 670 | CO[C@@H]1C(=O)C[C@]23C[C@H](CC(C)=O)N(C)[C@@]24C[C@@H](O[C@]14OC)c1cc2c(cc13)OCO2 [PERIGLAUCINE D] | 1.65 | > 466 | 2060 | <1 | 3.07
– | 0.0108 | – | Cc1cn([C@H]2C[C@H](N=[N+]=[N-])[C@@H](CO)O2)c(=O)[nH]c1=O [ZIDOVUDINE] | 471 | – | – | – | –
